One experiment addresses T1, cPLA2 (Homo sapiens, UniProt P47712).
T1 sequence (P47712 1-749): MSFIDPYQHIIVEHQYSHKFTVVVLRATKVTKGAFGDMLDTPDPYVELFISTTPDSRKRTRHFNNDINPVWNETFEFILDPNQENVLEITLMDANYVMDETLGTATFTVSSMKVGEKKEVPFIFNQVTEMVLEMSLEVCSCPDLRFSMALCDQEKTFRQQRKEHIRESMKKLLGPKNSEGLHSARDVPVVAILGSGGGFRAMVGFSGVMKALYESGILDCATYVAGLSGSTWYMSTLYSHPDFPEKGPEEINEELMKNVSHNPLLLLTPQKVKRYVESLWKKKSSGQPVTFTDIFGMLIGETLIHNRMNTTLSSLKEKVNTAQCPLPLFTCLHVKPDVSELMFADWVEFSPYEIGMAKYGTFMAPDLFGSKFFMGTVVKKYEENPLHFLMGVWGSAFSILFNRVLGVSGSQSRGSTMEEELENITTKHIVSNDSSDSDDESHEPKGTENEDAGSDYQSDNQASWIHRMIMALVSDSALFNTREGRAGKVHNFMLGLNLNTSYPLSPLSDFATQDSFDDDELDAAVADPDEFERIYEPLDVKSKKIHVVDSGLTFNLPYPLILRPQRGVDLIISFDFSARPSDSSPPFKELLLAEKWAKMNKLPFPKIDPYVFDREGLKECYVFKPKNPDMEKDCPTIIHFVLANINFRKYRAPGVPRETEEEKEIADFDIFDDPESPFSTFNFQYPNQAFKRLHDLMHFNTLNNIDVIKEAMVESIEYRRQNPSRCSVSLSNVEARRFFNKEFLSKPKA
Description: cPLA2 Inhibitory Activity. It counts as biochemical. The conditions noted are these: 1-palmitoyl-2-[14C]-arachidonoyl-sn-glycero-3-phosphocholine 2.5 μM, sn-1,2-dioleoylglycerol 1.25 μM; pH 7.5, 15 min at 37° C. As to the method:
Test Example 1 cPLA2 Inhibitory Activity The compounds of the present invention were tested for the cPLA2 inhibitory activity according to the method disclosed in […]. Roberts, […], and J. E. Putnam, J. Biol. Chem., 1991, 266, 5268-5272 as outlined below. […] The reaction mixture includes 50 mM HEPES buffer (pH 7.5), 1 mM calcium chloride, 150 mM sodium chloride, 0.1 mg/ml bovine serum albumin, and 1.7 mM dithiothreitol. To the reaction mixture was added the compound of the present invention and the substrate solution. The reaction was allowed to start by adding an enzyme and continued for 15 min at 37° C. The fatty acids released by the reaction were extracted by the method described in V. P. Dole, and H. Meinertz, J. Biol. Chem., 1960, 235, 2595-2599 and its radiation activity was measured on a liquid scintillation counter. Control was obtained by conducting the experiment in the same manner except that a compound of the present invention was not added.

Experiment [1] concerns production of prostaglandin E2 by human fibroblasts. Description: Inhibition of Production of Prostaglandin E2 in Human Fibroblasts (IL-1 stimulation). It counts as cell-based. To be noted: Fibroblast; human fibroblasts under stimulation with IL-1. As to the method:
Test Example 2 Inhibition of Production of Prostaglandin E2 in Human Fibroblasts.
In order to examine the availability of the composition for inhibiting cytosolic phospholipase A2 (cPLA2) on the cells, the compounds of the present invention were tested for the effect on the production of prostaglandin E2 by human fibroblasts under the stimulation with IL-1 according to the method of J. M. Dayer et al (CACHECTIN/TUMOR NECROSIS FACTOR STIMULATES COLLAGENASE AND PROSTAGLANDIN E2 PRODUCTION BY HUMAN SYNOVIAL CELLS AND DERMAL FIBROBLASTS; J. M. Dayer, B, Beutler and A, Cerami, J. EXP. Med., 1985, 162, 2163-2168.).

Each structure is given as a SMILES string. pIC50: −log10 of the molar value.

Regarding `O=C1NC(=O)/C(=C/c2ccc(C(=O)NC[C@@H]3C[C@@H](OCc4ccccc4-c4ccccc4)CN3C(=O)c3ccccc3C(=O)c3cccs3)cc2)S1` [Compound A-19], the pIC50 at cPLA2 is 6.00; in experiment [1], 6.80.
As to `O=C1NC(=S)S/C1=C\c1ccc(C(=O)NC[C@@H]2C[C@@H](OCc3ccccc3-c3ccccc3)CN2C(=O)c2ccccc2C(=O)c2ccc(F)cc2)cc1` [Compound A-20], the pIC50 was 6.52 on cPLA2 and 6.46 in experiment [1].
As for `Cc1ccc(C(=O)c2ccccc2C(=O)N2C[C@H](OCc3ccccc3-c3ccccc3)C[C@H]2CNC(=O)c2ccc(/C=C3\SC(=O)NC3=O)cc2)cc1` [Compound A-21], the negative-log IC50 (pIC50) is 6.37 against cPLA2 and 6.64 in experiment [1].
Consider `O=C1NC(=O)/C(=C/c2ccc(C(=O)NC[C@@H]3C[C@@H](OCc4ccccc4-c4ccccc4)CN3C(=O)c3ccccc3C(=O)c3ccc(Cl)cc3)cc2)S1` [Compound A-22], for which the pIC50 on cPLA2 was 6.52; in experiment [1], 6.74.
`Nc1ccccc1C(=O)c1ccccc1C(=O)N1C[C@H](OCc2ccccc2-c2ccccc2)C[C@H]1CNC(=O)c1ccc(/C=C2\SC(=O)NC2=O)cc1` [Compound A-23]: the figures for the pIC50 (at cPLA2; in experiment [1]) were 6.34 and 5.92, respectively.
On the same counts, the results for `O=C1NC(=O)/C(=C/c2ccc(C(=O)NC[C@@H]3C[C@@H](OCc4ccccc4-c4ccccc4)CN3C(=O)c3ccccc3C(=O)c3ccc(F)cc3F)cc2)S1` [Compound A-25] are 7.32 and 6.10.
In the case of `O=C1NC(=O)/C(=C/c2ccc(C(=O)NC[C@@H]3C[C@@H](OCc4ccccc4-c4ccccc4)CN3C(=O)c3cccc4c3C(=O)c3ccccc3-4)cc2)S1` [Compound A-26], the pIC50 was 6.00 against cPLA2 and 6.77 in experiment [1].
On to `Cc1ccc(C(=O)c2ccccc2C(=O)N2C[C@H](OCc3ccccc3-c3ccccc3)C[C@H]2CNC(=O)c2ccc(/C=C3\SC(=S)NC3=O)cc2)cc1` [Compound A-27], for which the pIC50 on cPLA2 is 6.37; in experiment [1], 5.92.
Take `O=C1NC(=S)S/C1=C\c1ccc(C(=O)NC[C@@H]2C[C@@H](OCc3ccccc3-c3ccccc3)CN2C(=O)c2ccccc2C(=O)c2ccc(Cl)cc2)cc1` [Compound A-28]: the pIC50 on cPLA2 was 6.55; in experiment [1], 5.85.
Turning to `O=C1NC(=O)/C(=C/c2ccc(C(=O)NC[C@@H]3C[C@@H](OC(c4ccccc4)c4ccccc4)CN3C(=O)c3ccccc3C(=O)c3ccc(F)cc3)cc2)S1` [Compound A-29], the pIC50 against cPLA2 was 7.07; in experiment [1], 5.66.
On to `O=C1NC(=O)/C(=C/c2ccc(C(=O)NC[C@@H]3C[C@@H](OCc4ccccc4-c4ccc(F)cc4)CN3C(=O)c3ccccc3C(=O)c3ccc(F)cc3)cc2)S1` [Compound A-30], for which the pIC50 against cPLA2 was 7.01; in experiment [1], 6.34.
As to `O=C1NC(=O)/C(=C/c2ccc(C(=O)NC[C@@H]3C[C@@H](OCc4ccccc4Cc4ccccc4)CN3C(=O)c3ccccc3C(=O)c3ccc(F)cc3)cc2)S1` [Compound A-32], the pIC50 at cPLA2 is 7.17; in experiment [1], 6.24.
Regarding `O=C1NC(=O)/C(=C/c2ccc(C(=O)NC[C@@H]3C[C@@H](OCc4ccccc4Br)CN3C(=O)c3ccccc3C(=O)c3ccc(F)cc3)cc2)S1` [Compound A-33], the pIC50 was 7.23 on cPLA2 and 6.34 in experiment [1].
For `O=C1NC(=O)/C(=C/c2ccc(C(=O)NC[C@@H]3C[C@@H](OCc4ccccc4I)CN3C(=O)c3ccccc3C(=O)c3ccc(F)cc3)cc2)S1` [Compound A-34], the values for the pIC50 (against cPLA2; in experiment [1]) were 7.15 and 6.32, respectively.
Turning to `O=C1NC(=O)/C(=C/c2ccc(C(=O)NC[C@@H]3C[C@@H](OCc4ccccc4-c4cccc5ccccc45)CN3C(=O)c3ccccc3C(=O)c3ccc(F)cc3)cc2)S1` [Compound A-35], the pIC50 against cPLA2 was 7.40; in experiment [1], 6.74.
As to `O=C1NC(=O)/C(=C/c2ccc(C(=O)NC[C@@H]3C[C@@H](OCc4ccccc4-c4ccc5ccccc5c4)CN3C(=O)c3ccccc3C(=O)c3ccc(F)cc3)cc2)S1` [Compound A-36], the pIC50 is 7.32 against cPLA2 and 6.74 in experiment [1].
On the same counts, the results for `O=C1NC(=O)/C(=C/c2ccc(C(=O)NC[C@@H]3C[C@@H](OCc4ccccc4-c4cccs4)CN3C(=O)c3ccccc3C(=O)c3ccc(F)cc3)cc2)S1` [Compound A-37] are 7.14 and 6.55.
As to `O=C1NC(=O)/C(=C/c2ccc(C(=O)NC[C@@H]3C[C@@H](OCc4ccccc4-c4ccsc4)CN3C(=O)c3ccccc3C(=O)c3ccc(F)cc3)cc2)S1` [Compound A-38], the pIC50 at cPLA2 is 7.08; in experiment [1], 6.37.
For `O=C1NC(=O)/C(=C/c2ccc(C(=O)NC[C@@H]3C[C@@H](OCc4ccc5ccccc5c4-c4ccccc4)CN3C(=O)c3ccccc3C(=O)c3ccc(F)cc3)cc2)S1` [Compound A-39], the values for the negative-log IC50 (pIC50) (on cPLA2; in experiment [1]) were 7.60 and 6.48, respectively.
In the case of `O=C1NC(=O)/C(=C/c2ccc(C(=O)NC[C@@H]3C[C@@H](OCc4ccccc4-c4cc5ccccc5o4)CN3C(=O)c3ccccc3C(=O)c3ccc(F)cc3)cc2)S1` [Compound A-40], the pIC50 is 7.44 against cPLA2 and 6.21 in experiment [1].
Turning to `COc1ccccc1-c1ccccc1CO[C@@H]1C[C@@H](CNC(=O)c2ccc(/C=C3\SC(=O)NC3=O)cc2)N(C(=O)c2ccccc2C(=O)c2ccc(F)cc2)C1` [Compound A-41], the pIC50 was 7.25 against cPLA2 and 5.92 in experiment [1].
Take `CN(Cc1ccccc1)c1ccccc1CO[C@@H]1C[C@@H](CNC(=O)c2ccc(/C=C3\SC(=O)NC3=O)cc2)N(C(=O)c2ccccc2C(=O)c2ccc(F)cc2)C1` [Compound A-43]: the pIC50 against cPLA2 was 7.28; in experiment [1] it was 6.25.
For the molecule `O=C1NC(=O)/C(=C/c2ccc(C(=O)NC[C@@H]3C[C@@H](OCc4ccccc4-c4cccc(C(F)(F)F)c4)CN3C(=O)c3ccccc3C(=O)c3ccc(F)cc3)cc2)S1` [Compound A-44], the pIC50 at cPLA2 is 7.24; in experiment [1], 6.26.
`O=C1NC(=O)/C(=C/c2ccc(C(=O)NC[C@@H]3C[C@@H](OCc4ccccc4-c4cccc([N+](=O)[O-])c4)CN3C(=O)c3ccccc3C(=O)c3ccc(F)cc3)cc2)S1` [Compound A-45]: the negative logarithm of the IC50 (pIC50) on cPLA2 was 7.13; in experiment [1], 6.42.
On to `O=C1NC(=O)/C(=C/c2ccc(C(=O)NC[C@@H]3C[C@@H](OCc4ccccc4Oc4ccccc4)CN3C(=O)c3ccccc3C(=O)c3ccc(F)cc3)cc2)S1` [Compound A-48], for which the values for the pIC50 (on cPLA2; in experiment [1]) were 7.05 and 6.21, respectively.
For `O=C1NC(=O)C(=C/C=C/c2ccc(C(=O)NC[C@@H]3C[C@@H](OCc4ccccc4-c4ccccc4)CN3C(=O)c3ccccc3C(=O)c3ccc(F)cc3)cc2)S1` [Compound A-49] the same measures were 7.31 and 6.92.
Turning to `O=C(/C=C/c1ccc(/C=C2\SC(=O)NC2=O)cc1)NC[C@@H]1C[C@@H](OCc2ccccc2-c2ccccc2)CN1C(=O)c1ccccc1C(=O)c1ccc(F)cc1` [Compound A-52], the pIC50 on cPLA2 is 7.28; in experiment [1], 6.21.
On to `O=C1NC(=O)/C(=C/c2ccc(C(=O)NC[C@@H]3C[C@@H](OCc4ccccc4-c4ccccc4)CN3C(=O)c3ccccc3C(=O)c3ccc(F)cc3)s2)S1` [Compound A-58], for which the negative-log IC50 (pIC50) against cPLA2 is 7.31; in experiment [1] it was 5.80.
Consider `O=C1NC(=S)S/C1=C\c1ccc(C(=O)NC[C@@H]2C[C@@H](OCc3ccccc3-c3ccccc3)CN2C(=O)c2ccccc2C(=O)c2ccc(F)cc2)s1` [Compound A-59], for which the pIC50 is 7.33 against cPLA2 and 6.03 in experiment [1].

Broadly, the pIC50 is the IC50 on a negative log10 scale, so that one unit is a factor of ten.

The values are drawn from US6147100A, “Pyrrolidine derivatives having phospholipase A2 inhibitory activity” (Shionogi & Co., Ltd., priority 1997, dated 2000).
